Compound: CC1CC(=O)N(C2=CN=C(N=C2N1C3CCCC3)NC4=C(C=C(C=C4)C(=O)NC5CCN(CC5)C)OC)C [NPK76-II-72-1] + COc1cc2c(Oc3ccc(NC(=O)C4(C(=O)Nc5ccc(F)cc5)CC4)cc3F)ccnc2cc1OCCCN1CCOCC1 [Foretinib] (partner 0.25 µM)
Experiment: relative viability (nuclei count vs DMSO), 5 days (fraction); higher = more cells survive
Settings: first compound 0.01 µM
Method in brief: (§1)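 Cells from lung cancer lines were seeded into 1536-well plates and, one day later, dosed by pin tool. Treatments were either a single drug or a fixed dose of an anchor drug with five library-drug doses (not always all listed) in √10 steps. After 5 days, nuclei were stained in a one-step fixation (final 0.05% Triton X-100, 1% formaldehyde, 1 ug/ml Hoechst) and counted on 4× images, and relative viability is the treated-to-vehicle nuclei ratio, as the median of duplicate plates.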

Cell Line | relative viability
NCI-H1944 | 0.9
NCI-H1975 | 1.01
RERF-LC-KJ | 0.768
ABC-1 | 1.06
NCI-H358 | 0.575
NCI-H650 | 1.01
PC-3 [JPC-3] | 1.04

Same assay, conditions: first compound 0.03162 µM

Cell Line | relative viability
NCI-H1944 | 0.936
NCI-H1975 | 0.981
RERF-LC-KJ | 0.899
ABC-1 | 1.12
NCI-H358 | 0.695
NCI-H650 | 1.04
PC-3 [JPC-3] | 1.06

Same assay, conditions: first compound 0.1 µM

Cell Line | relative viability
NCI-H1944 | 0.899
NCI-H1975 | 0.826
RERF-LC-KJ | 0.894
ABC-1 | 0.799
NCI-H358 | 0.915
NCI-H650 | 0.971
PC-3 [JPC-3] | 0.96

Same assay, conditions: first compound 0.3162 µM

Cell Line | relative viability
NCI-H1944 | 0.808
NCI-H1975 | 0.929
RERF-LC-KJ | 0.808
ABC-1 | 1.08
NCI-H650 | 0.918
PC-3 [JPC-3] | 0.952

Same assay, conditions: first compound 1 µM

Cell Line | relative viability
NCI-H1944 | 0.992
NCI-H1975 | 0.943
RERF-LC-KJ | 0.884
ABC-1 | 1.17
NCI-H358 | 0.769
NCI-H650 | 1.04
PC-3 [JPC-3] | 1.12

Compound: CC[C@@H]1C(=O)N(C)c2cnc(Nc3ccc(C(=O)NC4CCN(C)CC4)cc3OC)nc2N1C1CCCC1 [BI-2536] + Cc1nc(NC(=O)N2CCC[C@H]2C(N)=O)sc1-c1ccnc(C(C)(C)C(F)(F)F)c1 [Alpelisib] (partner 2 µM)
Experiment: as above
Settings: first compound 0.01 µM
Method in brief: as §1

Cell Line | relative viability
NCI-H1944 | 0.895
NCI-H1975 | 0.654
RERF-LC-KJ | 0.697
ABC-1 | 1.08
NCI-H358 | 0.995
NCI-H650 | 1.02
PC-3 [JPC-3] | 1.13

Same assay, conditions: first compound 0.03162 µM

Cell Line | relative viability
NCI-H1944 | 0.892
NCI-H1975 | 0.479
RERF-LC-KJ | 0.724
ABC-1 | 1.13
NCI-H358 | 0.537
NCI-H650 | 0.778
PC-3 [JPC-3] | 0.978

Same assay, conditions: first compound 0.1 µM

Cell Line | relative viability
NCI-H1944 | 0.679
NCI-H1975 | 0.351
RERF-LC-KJ | 0.675
ABC-1 | 0.732
NCI-H358 | 0.154
NCI-H650 | 0.437
PC-3 [JPC-3] | 0.871

Same assay, conditions: first compound 0.3162 µM

Cell Line | relative viability
NCI-H1944 | 0.192
NCI-H1975 | 0.148
RERF-LC-KJ | 0.195
ABC-1 | 0.296
NCI-H358 | 0.158
NCI-H650 | 0.218
PC-3 [JPC-3] | 0.264

Same assay, conditions: first compound 1 µM

Cell Line | relative viability
NCI-H1944 | 0.164
NCI-H1975 | 0.173
RERF-LC-KJ | 0.208
ABC-1 | 0.3
NCI-H358 | 0.159
NCI-H650 | 0.127
PC-3 [JPC-3] | 0.24

Compound: CC1CC(=O)N(C2=CN=C(N=C2N1C3CCCC3)NC4=C(C=C(C=C4)C(=O)NC5CCN(CC5)C)OC)C [NPK76-II-72-1] + NC(=O)Nc1cc(-c2cccc(F)c2)sc1C(=O)N[C@H]1CCCNC1 [AZD7762] (partner 0.2 µM)
Experiment: as above
Settings: first compound 0.01 µM
Method in brief: as §1

Cell Line | relative viability
NCI-H1944 | 0.456
NCI-H1975 | 0.727
RERF-LC-KJ | 0.938
ABC-1 | 0.73
NCI-H358 | 0.521
NCI-H650 | 1.13
PC-3 [JPC-3] | 0.766

Same assay, conditions: first compound 0.03162 µM

Cell Line | relative viability
NCI-H1944 | 0.509
NCI-H1975 | 0.733
RERF-LC-KJ | 0.931
ABC-1 | 0.726
NCI-H358 | 0.525
NCI-H650 | 0.997

Same assay, conditions: first compound 0.1 µM

Cell Line | relative viability
NCI-H1944 | 0.779
NCI-H1975 | 0.686
RERF-LC-KJ | 0.987
ABC-1 | 0.719
NCI-H358 | 0.611
NCI-H650 | 0.97
PC-3 [JPC-3] | 0.738

Same assay, conditions: first compound 0.3162 µM

Cell Line | relative viability
NCI-H1944 | 0.572
NCI-H1975 | 0.694
RERF-LC-KJ | 0.763
ABC-1 | 0.536
NCI-H650 | 0.896
PC-3 [JPC-3] | 0.917

Same assay, conditions: first compound 1 µM

Cell Line | relative viability
NCI-H1944 | 0.595
NCI-H1975 | 0.734
RERF-LC-KJ | 1.15
ABC-1 | 0.72
NCI-H358 | 0.683
NCI-H650 | 0.995
PC-3 [JPC-3] | 0.751

Compound: CC1CC(=O)N(C2=CN=C(N=C2N1C3CCCC3)NC4=C(C=C(C=C4)C(=O)NC5CCN(CC5)C)OC)C [NPK76-II-72-1] + Cc1cc(Nc2cc(N3CCN(C)CC3)nc(Sc3ccc(NC(=O)C4CC4)cc3)n2)n[nH]1 [Tozasertib] (partner 0.1 µM)
Experiment: as above
Settings: first compound 0.01 µM
Method in brief: as §1

Cell Line | relative viability
NCI-H1944 | 0.255
NCI-H1975 | 0.731
RERF-LC-KJ | 0.589
ABC-1 | 0.185
NCI-H358 | 0.108
NCI-H650 | 0.738
PC-3 [JPC-3] | 0.882

Same assay, conditions: first compound 0.03162 µM

Cell Line | relative viability
NCI-H1944 | 0.283
NCI-H1975 | 0.893
RERF-LC-KJ | 0.51
ABC-1 | 0.179
NCI-H358 | 0.11
NCI-H650 | 0.778
PC-3 [JPC-3] | 0.861

Same assay, conditions: first compound 0.1 µM

Cell Line | relative viability
NCI-H1944 | 0.245
NCI-H1975 | 0.673
RERF-LC-KJ | 0.573
ABC-1 | 0.172
NCI-H358 | 0.0907
NCI-H650 | 0.713
PC-3 [JPC-3] | 0.81

Same assay, conditions: first compound 0.3162 µM

Cell Line | relative viability
NCI-H1944 | 0.228
NCI-H1975 | 0.665
RERF-LC-KJ | 0.548
ABC-1 | 0.21
NCI-H650 | 0.661
PC-3 [JPC-3] | 0.904

Same assay, conditions: first compound 1 µM

Cell Line | relative viability
NCI-H1944 | 0.257
NCI-H1975 | 0.912
RERF-LC-KJ | 0.513
ABC-1 | 0.155
NCI-H358 | 0.115
NCI-H650 | 0.796
PC-3 [JPC-3] | 0.93
